# Source: patent US20150307938A1, “METHOD TO IDENTIFY A NOVEL CLASS OF IMMUNOLOGIC ADJUVANTS” (Lancell, L.L.C., priority 2011, published 2015)
# System: skin
# Assay: Affymetrix microarray of skin, DBP-4 hr and analogs vs. untreated; gene selection by log-2 fold change, Wilcoxon, Kendall tau (Tables 8, 9)
# Format: in vivo, mouse
# [1] = Kendall tau, expression vs. output
smiles,measurement,setting,value
"CCCCOC(=O)c1ccccc1C(=O)OCCCC [DBP, dibutylphthalate]",Oxr1 NM_001130166_at Kendall,[1],Yes
same,Pgam2 NM_018870_at Kendall,[1],No
same,Pigyl NM_001082532_at Kendall,[1],Yes
same,Pparg NM_001127330_at Kendall,[1],Yes
same,Ppih NM_001110129_at Kendall,[1],Yes
same,Prg4 NM_021400_at Kendall,[1],No
same,Retnla NM_020509_at Kendall,[1],No
same,Rffl NM_001007465_at Kendall,[1],Yes
same,Rn18s NR_003278_at Kendall,[1],No
same,Rpl3l NM_025425_at Kendall,[1],No
same,Slc39a14 NM_001135151_at Kendall,[1],Yes
same,Sln NM_025540_at Kendall,[1],No
same,Smpx NM_025357_at Kendall,[1],No
same,Tnfrsf9 NM_001077508_at Kendall,[1],Yes
same,Tnfrsf9 NM_001077509_at Kendall,[1],Yes
same,Tnni1 NM_021467_at Kendall,[1],No
same,Trdn NM_029726_at Kendall,[1],No
same,Trf NM_133977_at Kendall,[1],No
same,Trp63 NM_001127259_at Kendall,[1],Yes
same,Trp63 NM_001127260_at Kendall,[1],Yes
same,Trp63 NM_001127262_at Kendall,[1],Yes
same,Trp63 NM_001127264_at Kendall,[1],Yes
same,Ttn NM_028004_at Kendall,[1],No
same,Wbp1 NM_001083922_at Kendall,[1],Yes
same,Wbp1 NM_001083923_at Kendall,[1],Yes
same,Wfdc2 NM_026323_at Kendall,[1],No
same,Zfp68 NM_001044747_at Kendall,[1],Yes
same,Zfp187 NM_001013786_at Kendall,[1],Yes
same,Zfp518b NM_001081144_at Kendall,[1],Yes
same,Zfp943 NM_001025373_at Kendall,[1],Yes
same,Wilcoxon,"Map3k8 NM_007746_at, DBP-4 hr vs. untreated",No
same,Kendall,"Map3k8 NM_007746_at, Kendall tau coefficient",No
same,DBP Expression: Adam8,"NM_007403_at, DBP-4 hr",8.84
same,DBP Expression: Birc3,"NM_007464_at, DBP-4 hr",10.36
same,DBP Expression: Btg2,"NM_007570_at, DBP-4 hr",10.63
same,DBP Expression: Cebpd,"NM_007679_at, DBP-4 hr",10.17
same,DBP Expression: Socs2,"NM_007706_at, DBP-4 hr",8.92
same,DBP Expression: Socs3,"NM_007707_at, DBP-4 hr",9.48
same,DBP Expression: Map3k8,"NM_007746_at, DBP-4 hr",8.72
same,DBP Expression: Csf2rb,"NM_007780_at, DBP-4 hr",7.73
same,DBP Expression: Csrp1,"NM_007791_at, DBP-4 hr",9.89
same,DBP Expression: Egr1,"NM_007913_at, DBP-4 hr",12.15
same,DBP Expression: F2rl1,"NM_007974_at, DBP-4 hr",9.38
same,DBP Expression: Fgfbp1,"NM_008009_at, DBP-4 hr",11.47
same,DBP Expression: Gjb2,"NM_008125_at, DBP-4 hr",8.85
same,DBP Expression: Gpr65,"NM_008152_at, DBP-4 hr",5.48
same,DBP Expression: Cxcl1,"NM_008176_at, DBP-4 hr",10.24
same,DBP Expression: Gyk,"NM_008194_at, DBP-4 hr",9.63
same,DBP Expression: Hdc,"NM_008230_at, DBP-4 hr",8.51
same,DBP Expression: Il10ra,"NM_008348_at, DBP-4 hr",6.97
same,DBP Expression: Il1b,"NM_008361_at, DBP-4 hr",7.67
same,DBP Expression: Il7r,"NM_008372_at, DBP-4 hr",7.70
same,DBP Expression: Junb,"NM_008416_at, DBP-4 hr",9.71
same,DBP Expression: Krt6a,"NM_008476_at, DBP-4 hr",10.76
same,DBP Expression: Mt2,"NM_008630_at, DBP-4 hr",13.23
same,DBP Expression: Serpine1,"NM_008871_at, DBP-4 hr",8.32
same,DBP Expression: Cxcl2,"NM_009140_at, DBP-4 hr",8.67
same,DBP Expression: Sprr1a,"NM_009264_at, DBP-4 hr",10.84
same,DBP Expression: Stc1,"NM_009285_at, DBP-4 hr",7.56
same,DBP Expression: Tnfaip2,"NM_009396_at, DBP-4 hr",8.85
same,DBP Expression: Tnfaip3,"NM_009397_at, DBP-4 hr",7.22
same,DBP Expression: Tnfaip6,"NM_009398_at, DBP-4 hr",8.79
same,DBP Expression: Traf1,"NM_009421_at, DBP-4 hr",6.04
same,DBP Expression: Ccrn4l,"NM_009834_at, DBP-4 hr",10.05
same,DBP Expression: Cd44,"NM_009851_at, DBP-4 hr",9.82
same,DBP Expression: Ch25h,"NM_009890_at, DBP-4 hr",7.68
same,DBP Expression: Cish,"NM_009895_at, DBP-4 hr",9.37
same,DBP Expression: Eif1a,"NM_010120_at, DBP-4 hr",9.39
same,DBP Expression: Epha2,"NM_010139_at, DBP-4 hr",8.60
same,DBP Expression: Fkbp5,"NM_010220_at, DBP-4 hr",8.58
same,DBP Expression: Fosl1,"NM_010235_at, DBP-4 hr",6.85
same,DBP Expression: Hbegf,"NM_010415_at, DBP-4 hr",8.85
same,DBP Expression: Nr4a1,"NM_010444_at, DBP-4 hr",10.34
same,DBP Expression: Icam1,"NM_010493_at, DBP-4 hr",10.54
same,DBP Expression: Ier2,"NM_010499_at, DBP-4 hr",10.73
same,DBP Expression: Cyr61,"NM_010516_at, DBP-4 hr",9.37
same,DBP Expression: Jun,"NM_010591_at, DBP-4 hr",9.74
same,DBP Expression: Osmr,"NM_011019_at, DBP-4 hr",7.49
same,DBP Expression: Plaur,"NM_011113_at, DBP-4 hr",7.68
same,DBP Expression: Rab20,"NM_011227_at, DBP-4 hr",6.73
same,DBP Expression: Ccl12,"NM_011331_at, DBP-4 hr",8.47
same,DBP Expression: Ccl2,"NM_011333_at, DBP-4 hr",9.45
same,DBP Expression: Slc7a5,"NM_011404_at, DBP-4 hr",10.00
same,DBP Expression: Bhlhe40,"NM_011498_at, DBP-4 hr",10.32
same,DBP Expression: Cirh1a,"NM_011574_at, DBP-4 hr",9.51
same,DBP Expression: Zfp36,"NM_011756_at, DBP-4 hr",10.39
same,DBP Expression: Crem,"NM_013498_at, DBP-4 hr",6.91
same,DBP Expression: Gzmb,"NM_013542_at, DBP-4 hr",5.74
same,DBP Expression: Mt1,"NM_013602_at, DBP-4 hr",12.73
